Test results: US20120029015A1, “Novel medical use of kynurenic acid, its precursors and derivatives” (priority 2009, published 2012)
Marks after values point to notes of the source that are not given here.

Columns and labels:
Assay type in all cases: in vivo, Wistar rats
[1] = tested on: caerulein-induced destruction of pancreatic tissue (DPT); test: Serum α-amylase activity in caerulein-induced DPT; conditions: mean
Method: The experiments were performed using adult male Wistar rats. All experimental procedures were in compliance with currently accepted guidelines for care and use of animals. The study protocol was approved by the Bioethics Committee. Before the experiment, rats were given no food for 24 hours, water was available in unrestricted quantities. Destruction of pancreatic tissue (DPT) was induced by injections of caerulein (dose of 15 μg/kg/hr). Animals were randomly assigned to the following groups. […] After 6 hours from inducing DPT antioxidative effects were determined by means of measuring the ferric reducing ability of plasma (FRAP) and levels of the markers of oxidative stress: malonyldialdehyde and 4-hydroxynonenals (MDA+4-HNE). The measurement of pancreatic edema, the serum α-amylase activity and histopathological analysis of pancreas were carried out to assess the progress of the disease. The extent of the serum α-amylase elevation is roughly proportional to the degree of destruction of pancreatic tissue. In Table 3 it is shown that kynurenic acid in the dose of 100 mg/kg/hr prevents elevation of α-amylase in the serum of caerulein-treated rats. Kynurenic acid in the dose of 50 mg/kg/hrs was also effective. […]

[2] = tested on: caerulein-induced destruction of pancreatic tissue (DPT); test: Plasma levels of lipid peroxidation products (MDA + 4-HNE) in caerulein-induced DPT; conditions: KYNA 100 mg/kg/hr + caerulein, mean
Method: (§1) The experiments were performed using adult male Wistar rats. All experimental procedures were in compliance with currently accepted guidelines for care and use of animals. The study protocol was approved by the Bioethics Committee. Before the experiment, rats were given no food for 24 hours, water was available in unrestricted quantities. Destruction of pancreatic tissue (DPT) was induced by injections of caerulein (dose of 15 μg/kg/hr). Animals were randomly assigned to the following groups. […] After 6 hours from inducing DPT antioxidative effects were determined by means of measuring the ferric reducing ability of plasma (FRAP) and levels of the markers of oxidative stress: malonyldialdehyde and 4-hydroxynonenals (MDA+4-HNE). The measurement of pancreatic edema, the serum α-amylase activity and histopathological analysis of pancreas were carried out to assess the progress of the disease. In the group of animals with caerulein-induced destruction of pancreatic tissue significant increase of concentration of malonyldialdehyde (MDA) and 4-hydroxynonenals (4-HNE), two markers of oxidative stress, occurred.

[3] = tested on: caerulein-induced destruction of pancreatic tissue (DPT); test: Histological changes in pancreatic tissue in caerulein-induced DPT; conditions: KYNA 100 mg/kg/hr + caerulein; mean ± SD; scale 0-3
Method: (§2) The experiments were performed using adult male Wistar rats. All experimental procedures were in compliance with currently accepted guidelines for care and use of animals. The study protocol was approved by the Bioethics Committee. Before the experiment, rats were given no food for 24 hours, water was available in unrestricted quantities. Destruction of pancreatic tissue (DPT) was induced by injections of caerulein (dose of 15 μg/kg/hr). Animals were randomly assigned to the following groups. […] After 6 hours from inducing DPT antioxidative effects were determined by means of measuring the ferric reducing ability of plasma (FRAP) and levels of the markers of oxidative stress: malonyldialdehyde and 4-hydroxynonenals (MDA+4-HNE). The measurement of pancreatic edema, the serum α-amylase activity and histopathological analysis of pancreas were carried out to assess the progress of the disease. Histopathological presentation of pancreas injury consists of edema, vacuolization or necrosis (Table 2). Since in the situation of application of a pancreas damaging agent caerulein kynurenic acid in the dose of 100 mg/kg/hr prevents or diminishes edema, vacuolization, and number of necrotic foci, kynurenic acid, its salts and derivatives may be of use in prevention and therapy of conditions leading to destruction of pancreatic tissue and are characterized by such histological picture.

[4] = tested on: caerulein-induced destruction of pancreatic tissue (DPT); test: Water content of pancreatic tissue (pancreatic edema) in caerulein-induced destruction of pancreatic tissue; conditions: for Water content of pancreas: 6 hours after inducing DPT, % of wet weight, mean
Method: as §2, with “[…] Kynurenic” for “Histopathological presentation of pancreas injury consists of edema, vacuolization or necrosis (Table 2). Since in the situation of application of a pancreas damaging agent caerulein kynurenic”, “50 mg/kg/hrs was also effective (Table 1). Since kynurenic acid” for “100 mg/kg/hr”, “edema induced by the pancreas damaging factor caerulein,” for “or diminishes edema, vacuolization, and number of necrotic foci,”, “used” for “of use”, “injury” for “destruction”, “tissue.” for “tissue and are characterized by such histological picture.”

[5] = tested on: caerulein-induced destruction of pancreatic tissue (DPT); test: Antioxidant capacity of plasma (FRAP) in caerulein-induced DPT; conditions: KYNA 100 mg/kg/hr + caerulein, mean
Method: as §1, with “disease.” for “disease. In the group of animals with caerulein-induced destruction of pancreatic tissue significant increase of concentration of malonyldialdehyde (MDA) and 4-hydroxynonenals (4-HNE), two markers of oxidative stress, occurred.”

O=C(O)c1cc(O)c2ccccc2n1 [KYNA, kynurenic acid]
Serum α-amylase activity ([1]; KYNA 50 mg/kg/hr + caerulein): 5262.26^#* U/l
Serum α-amylase activity ([1]; KYNA 100 mg/kg/hr + caerulein): 3495.20* U/l
MDA + 4-HNE plasma level [2]: 3.11* nmol/ml
Edema (0-3), histological score [3]: 1.6 ± 0.45
Necrosis (0-3), histological score [3]: 0.0 ± 0.0
Vacuolisation (0-3), histological score [3]: 0.8 ± 0.44
Water content of pancreas ([4]; KYNA 50 mg/kg/hr infusion + caerulein): 73.03* %
Water content of pancreas ([4]; KYNA 100 mg/kg/hr infusion + caerulein): 68.22* %
Macroscopic edema of pancreas ([4]; KYNA 100 mg/kg/hr infusion + caerulein, macroscopic presentation): no edema was noted
FRAP (Ferric Reducing Ability of Plasma) [5]: 602.4* μM
